In ChEMBL document CHEMBL5352411, “Synthesis and investigation of the trypanocidal potential of novel 1,2,3-triazole-selenide hybrids” (Eur J Med Chem, 2022):

Columns and labels:
[1] = Selectivity index, ratio of CC50 for HFF-1 cells to IC50 for intracellular amastigote form of Trypanosoma cruzi Tulahuen expressing Escherichia coli LacZ gene infected in HFF-1 cells; format: toxicity; conditions: human, read-out: Selectivity Index
[2] = Electrochemical behavior of the compound assessed as oxidation onset potential by cyclic voltammetry analysis relative to normal hydrogen electrode; format: physicochemical
[3] = Cytotoxicity against HFF-1 cells incubated for 72 hrs by MTS tetrazolium assay; format: toxicity, cell-based; conditions: human
[4] = tested on: Trypanosoma cruzi; test: Antitrypanosomal activity against intracellular amastigote form of Trypanosoma cruzi Tulahuen expressing Escherichia coli LacZ gene infected in HFF-1 cells incubated for 120 hrs by automated microplate reader; format: functional, organism-based; conditions: HFF-1, 120 h
[5] = Electrochemical behavior of the compound assessed as reduction onset potential by cyclic voltammetry analysis relative to normal hydrogen electrode; format: physicochemical

Row | SMILES | selectivity ratio [1] | Ep [2] | CC50 at 72 h [3] | IC50 [4] | Ep [5]
1 | Clc1ccc([Se]Cc2cn(-c3ccccc3)nn2)cc1 | 3.3 | 0.84 V | > 64 µM | 16.8 µM | –
2 | Fc1ccc([Se]Cc2cn(-c3ccccc3)nn2)cc1 | > 5.5 | 0.76 V | 62.5 µM | 11.6 µM | –
3 | Clc1ccc(-n2cc(C[Se]c3ccccc3)nn2)cc1 | > 5.6 | 0.81 V | > 64 µM | 11.5 µM | –
4 | COc1ccc(-n2cc(C[Se]c3ccccc3)nn2)cc1 | > 5 | 0.75 V | > 64 µM | 12.7 µM | –
5 | Cc1cc(C)c([Se]Cc2cn(-c3ccccc3)nn2)c(C)c1 | – | 1.03 V | – | 39.2 µM | –
6 | O=[N+]([O-])c1ccc(-n2cc(C[Se]c3ccccc3)nn2)cc1 | – | 0.9 V | – | > 64 µM | -1.11 V
7 | Cc1ccc(-n2cc(C[Se]c3ccccc3)nn2)cc1 | > 6.9 | 0.85 V | > 64 µM | 9.3 µM | –
8 | c1ccc(SCc2cn(-c3ccccc3)nn2)cc1 | – | 1.06 V | – | 21.2 µM | –
9 | Cc1ccc([Se]Cc2cn(-c3ccccc3)nn2)cc1 | 8.4 | 0.81 V | 56.1 µM | 7.4 µM | –
10 | Cc1cccc(-n2cc(C[Se]c3ccccc3)nn2)c1 | > 7 | 0.84 V | > 64 µM | 9.2 µM | –
11 | Clc1ccccc1-n1cc(C[Se]c2ccccc2)nn1 | > 4.2 | 0.83 V | > 64 µM | 15.2 µM | –
12 | FC(F)(F)c1cccc([Se]Cc2cn(-c3ccccc3)nn2)c1 | > 11.9 | 0.97 V | > 64 µM | 5.4 µM | -0.92 V
13 | c1ccc([Se]Cc2cn(-c3ccccc3)nn2)cc1 | 5.9 | 0.79 V | 48 µM | 8.2 µM | –
14 | c1ccc(-n2cc(C[Se]c3cccs3)nn2)cc1 | 2.8 | 1.22 V | 43.1 µM | 15.6 µM | –
15 | c1ccc(-n2cc(C[Se]c3cccc4ccccc34)nn2)cc1 | > 20.6 | 0.96 V | > 64 µM | 3.1 µM | -0.82 V
16 | O=C(Cn1ccnc1[N+](=O)[O-])NCc1ccccc1 [BENZNIDAZOLE] | > 30.5 | – | > 64 µM | 2.1 µM | –
17 | Cc1ccccc1-n1cc(C[Se]c2ccccc2)nn1 | > 6.5 | 0.83 V | – | 9.8 µM | –
